Data reported in US4288630A, “1-Hydroxymethyl-11,15-dihydroxy-prosten-1-ol-derivatives” (American Cyanamid Company, priority 1980, dated 1981).

What was measured:
Assay type in all cases: in vivo, dog
Details in all cases: Konzett data
5-HT = test: Konzett bronchodilator assay, 5-HT
Hist = test: Konzett bronchodilator assay, Hist
Ach = test: Konzett bronchodilator assay, Ach

CCCCCC(C)(O)/C=C/C1C(O)CC(=O)C1C/C=C\CCCCO (racemic) [dl-1,11,15-trihydroxymethyl-9-oxo-15-methyl-5-cis-13-trans prostadiene]
5-HT (ED50 g/kg) (5-HT): 0.0083 g/kg | Hist (ED50 g/kg) (Hist): 0.00075 g/kg | Ach (ED50 g/kg) (Ach): 0.0043 g/kg
